The source of these data is patent US6638936B1, “Benzofurylpiperazine serotonin agonists” (Eli Lilly and Company, priority 1999, dated 2003).

Like-named read-outs stand apart in the source and are kept apart here.

For experiment [1], the target named is T1, human 5-HT2C receptor (Homo sapiens, UniProt P28335).
T1 construct: expressed in transfected cells
T1 sequence (P28335 33-458): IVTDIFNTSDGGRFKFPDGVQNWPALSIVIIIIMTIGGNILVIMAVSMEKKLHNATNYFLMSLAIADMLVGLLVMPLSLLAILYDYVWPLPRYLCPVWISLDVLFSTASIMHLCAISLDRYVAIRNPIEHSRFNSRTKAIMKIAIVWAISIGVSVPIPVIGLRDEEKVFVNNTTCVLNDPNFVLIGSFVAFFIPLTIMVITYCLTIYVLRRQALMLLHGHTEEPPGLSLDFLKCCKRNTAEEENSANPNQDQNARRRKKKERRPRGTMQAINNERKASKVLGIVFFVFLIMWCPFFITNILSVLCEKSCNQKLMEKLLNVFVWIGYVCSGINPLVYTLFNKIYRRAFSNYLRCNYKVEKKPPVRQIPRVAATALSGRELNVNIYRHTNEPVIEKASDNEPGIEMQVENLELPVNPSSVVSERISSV
Briefly: [125I]-DOI binding for determination of 5-HT2c receptor affinity. The note with it: for Ki: 5-HT RECEPTOR 2c, [125I]-DOI, membranes of AV12 cells with human 5-HT2c, Ki from IC50 by Cheng-Prusoff; for affinity for the 5-HT2c receptor (in words): [125I]-DOI binding. The procedure: The ability of the compounds of Formula I to bind to the 5-HT2c receptor subtype was measured essentially as described by Wainscott (Wainscott, et al., Journal of Pharmacology and Experimental Therapeutics, 276, 720-727 (1996)).
AV12 cells stably transfected with the human 5-HT2c receptors were grown in suspension and harvested by centrifugation, resuspended in 50 mM tris-HCl, pH 7.4, and frozen at −70° C. On the day of assay, an aliquot of cells was thawed, resuspended in 40 mL of 50 mM tris-HCl, pH 7.4, and centrifuged at 39,800×g for 10 minutes at 4° C. The resulting pellet was resuspended, incubated at 37° C. for 10 minutes to remove endogenous serotonin, then centrifuged twice more.
Briefly, prepared cell membranes were added to dilutions of compounds in a final solution containing 50 mM tris-HCl, pH 7.4, 9.75 mM MgCl2, 0.5 mM EDTA, 10 μM pargyline, 0.1% sodium ascorbate, and 0.1 nM [^125I]-DOI, with 10 μM mianserin for defining non-specific binding. All incubations (800 μL) were performed at 37° C. for 30 minutes before harvesting onto GF/C filters prewet with 0.5% polyethyleneimine, with four 1 mL washes of ice-cold 50 mM tris-HCl, pH 7.4, and counting in a gamma counter. Nonlinear regression analysis was performed on the concentration response curves using a four parameter logistic equation described by DeLean (DeLean, et al., Molecular Pharmacology, 21, 5-16 (1982)). IC50 values were converted to Ki values using the Cheng-Prusoff equation (Cheng, et al., Biochem. Pharmacol., 22, 3099-3108 (1973)).

For the next experiment, the target named is T2, 5-HT1a receptor (Homo sapiens, UniProt P08908).
T2 sequence (P08908 1-422): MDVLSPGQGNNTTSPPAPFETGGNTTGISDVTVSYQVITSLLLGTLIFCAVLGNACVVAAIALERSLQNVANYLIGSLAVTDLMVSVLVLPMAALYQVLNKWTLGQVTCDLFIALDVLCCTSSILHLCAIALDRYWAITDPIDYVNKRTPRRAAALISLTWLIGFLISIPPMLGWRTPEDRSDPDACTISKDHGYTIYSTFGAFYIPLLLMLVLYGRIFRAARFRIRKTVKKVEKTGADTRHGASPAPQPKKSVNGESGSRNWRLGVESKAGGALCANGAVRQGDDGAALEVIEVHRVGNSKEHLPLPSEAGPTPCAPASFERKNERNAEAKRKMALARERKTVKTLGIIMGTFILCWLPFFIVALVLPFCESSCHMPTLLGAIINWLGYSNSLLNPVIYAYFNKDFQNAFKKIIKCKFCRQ
Briefly: Serotonergic receptor binding selectivity, 5-HT1a.

Another experiment has as its target 5-HT1b receptor (Homo sapiens, UniProt P28222). Nature of the experiment: Serotonergic receptor binding selectivity, 5-HT1b. The note with it: 5-HT RECEPTOR 1b.
The next experiment has as its target 5-HT1d receptor (Homo sapiens, UniProt P28221). Briefly: Serotonergic receptor binding selectivity, 5-HT1d. Conditions: 5-HT RECEPTOR 1d.
A further experiment concerns the target 5-HT1e receptor (Homo sapiens, UniProt P28566). Briefly: Serotonergic receptor binding selectivity, 5-HT1e. Conditions: 5-HT RECEPTOR 1e.
In another experiment the target is T3, 5-HT1f receptor (Homo sapiens, UniProt P30939).
T3 sequence (P30939 1-366): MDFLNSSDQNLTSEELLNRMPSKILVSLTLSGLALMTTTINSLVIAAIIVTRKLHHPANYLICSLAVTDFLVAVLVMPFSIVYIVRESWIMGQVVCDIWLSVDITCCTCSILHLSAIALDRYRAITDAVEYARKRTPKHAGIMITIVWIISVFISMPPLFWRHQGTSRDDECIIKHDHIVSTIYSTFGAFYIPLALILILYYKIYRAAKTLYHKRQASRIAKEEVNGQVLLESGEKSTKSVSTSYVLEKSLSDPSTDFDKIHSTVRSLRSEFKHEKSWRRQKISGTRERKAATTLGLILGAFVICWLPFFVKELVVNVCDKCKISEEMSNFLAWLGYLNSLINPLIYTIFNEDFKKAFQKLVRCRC
Nature of the experiment: Serotonergic receptor binding selectivity, 5-HT1f. Conditions: 5-HT RECEPTOR 1f.

Another experiment deals with 5-HT2a receptor (Homo sapiens, UniProt P28223). Nature of the experiment: Serotonergic receptor binding selectivity, 5-HT2a.
5-HT2a receptor, sequence (P28223 whole entry): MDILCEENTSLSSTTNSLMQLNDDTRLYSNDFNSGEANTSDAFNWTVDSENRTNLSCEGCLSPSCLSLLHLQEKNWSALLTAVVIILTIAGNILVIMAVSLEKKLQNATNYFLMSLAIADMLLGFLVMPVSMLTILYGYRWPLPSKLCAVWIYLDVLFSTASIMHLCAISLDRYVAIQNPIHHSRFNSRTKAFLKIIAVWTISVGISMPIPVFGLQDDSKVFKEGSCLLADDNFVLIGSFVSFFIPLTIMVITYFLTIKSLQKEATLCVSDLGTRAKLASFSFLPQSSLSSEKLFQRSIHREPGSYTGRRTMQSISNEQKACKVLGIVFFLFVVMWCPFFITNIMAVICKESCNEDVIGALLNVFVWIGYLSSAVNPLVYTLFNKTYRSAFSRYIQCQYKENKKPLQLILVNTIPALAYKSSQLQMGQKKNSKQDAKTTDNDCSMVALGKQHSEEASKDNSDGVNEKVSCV
The next experiment deals with 5-HT2b receptor (Homo sapiens, UniProt P41595). Nature of the experiment: Serotonergic receptor binding selectivity, 5-HT2b.
5-HT2b receptor, sequence (P41595 whole entry): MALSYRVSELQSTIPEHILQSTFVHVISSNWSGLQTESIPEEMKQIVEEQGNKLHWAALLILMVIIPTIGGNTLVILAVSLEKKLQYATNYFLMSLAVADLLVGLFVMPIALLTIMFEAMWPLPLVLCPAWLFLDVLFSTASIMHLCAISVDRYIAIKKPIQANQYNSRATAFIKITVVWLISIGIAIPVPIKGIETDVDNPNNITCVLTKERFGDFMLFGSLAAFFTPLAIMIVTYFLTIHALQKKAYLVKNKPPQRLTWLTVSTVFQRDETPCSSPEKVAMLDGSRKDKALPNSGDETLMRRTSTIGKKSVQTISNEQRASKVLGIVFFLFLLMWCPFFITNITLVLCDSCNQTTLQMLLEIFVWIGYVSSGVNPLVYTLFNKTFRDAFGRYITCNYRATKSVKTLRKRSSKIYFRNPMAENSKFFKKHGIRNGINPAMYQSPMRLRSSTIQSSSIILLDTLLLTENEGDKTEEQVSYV
For the next experiment, the target named is 5-HT4 receptor (Homo sapiens, UniProt Q13639). Briefly: Serotonergic receptor binding selectivity, 5-HT4. Conditions: 5-HT RECEPTOR 4.
5-HT4 receptor, sequence (Q13639 whole entry): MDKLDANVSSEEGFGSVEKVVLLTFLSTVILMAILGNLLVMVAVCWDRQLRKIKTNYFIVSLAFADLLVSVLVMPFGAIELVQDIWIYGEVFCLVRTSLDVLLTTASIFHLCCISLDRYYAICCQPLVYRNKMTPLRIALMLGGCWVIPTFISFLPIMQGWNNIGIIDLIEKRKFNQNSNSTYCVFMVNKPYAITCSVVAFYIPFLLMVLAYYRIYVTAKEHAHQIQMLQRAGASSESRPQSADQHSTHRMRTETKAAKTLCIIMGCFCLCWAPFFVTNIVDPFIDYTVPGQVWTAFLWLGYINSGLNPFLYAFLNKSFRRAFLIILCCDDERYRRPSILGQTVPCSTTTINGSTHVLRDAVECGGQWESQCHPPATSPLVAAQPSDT
The target in the next experiment is 5-HT6 receptor (Homo sapiens, UniProt P50406). Nature of the experiment: Serotonergic receptor binding selectivity, 5-HT6.
5-HT6 receptor, sequence (P50406 whole entry): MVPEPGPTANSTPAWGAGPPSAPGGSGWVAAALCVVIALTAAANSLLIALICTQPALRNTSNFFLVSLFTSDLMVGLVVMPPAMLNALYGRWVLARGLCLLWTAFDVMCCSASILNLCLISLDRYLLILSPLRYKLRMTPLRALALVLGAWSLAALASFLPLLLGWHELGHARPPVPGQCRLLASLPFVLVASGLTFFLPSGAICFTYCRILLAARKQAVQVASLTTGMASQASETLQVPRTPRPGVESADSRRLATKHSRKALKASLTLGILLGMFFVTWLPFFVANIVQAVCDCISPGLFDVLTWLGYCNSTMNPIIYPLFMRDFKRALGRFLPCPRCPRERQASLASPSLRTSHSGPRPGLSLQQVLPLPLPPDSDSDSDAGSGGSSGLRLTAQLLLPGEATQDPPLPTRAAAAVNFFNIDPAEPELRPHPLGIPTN
For experiment [2], the target named is T1, human 5-HT2C receptor. Nature of the experiment: [35S]-GTPγS binding (immunoadsorption scintillation proximity assay). It is filed as biochemical. Conditions: for functional activity at the 5-HT2c receptor (in words): [35S]-GTPγS assay. The source says:
The 5-HT2C receptor is functionally coupled to specific G-proteins. Agonist activation of 5-HT2C G-protein-coupled receptors results in the release of GDP from the […] (G alpha q or G alpha i) of the G-protein and the subsequent binding of GTP. The binding of the stable analog [^35S]-GTPγS is an indicator of this receptor's activation.
The immunoadsorption scintillation proximity assay (ISPA) in microtiter plates of [^35S]-GTPγS binding to G alpha q or G alpha i was modified from published conditions (DeLapp et al, JPET 289 (1999) 946-955). Test compounds were dissolved in DMSO and diluted in assay buffer consisting of 50 mM Tris-HCl (pH 7.4), 10 mM MgCl2, 100 mM NaCl, and 0.2 mM EGTA. Incubations were performed over 12 test concentrations; volume was 200 μl. The incubation also contained […] and 0.25 nM [^35S]-GTPγS. Membrane homogenates from AV12 cells stably transfected with the human 5-HT2C receptor were added and the microtiter plates were incubated for 30 minutes at room temperature. The incubation was terminated by the addition of Nonidet P-40 (final concentration of 0.27%), followed by addition of rabbit polyclonal anti-G alpha q/11 antibody (0.2 μg per well), and anti-rabbit scintillation proximity assay beads (Amersham; 1.25 mg per well; final volume was 290 μl). The mixture was incubated for 3 hours at room temperature to complete the immunoadsorption of [^35S]-GTPγS bound to G alpha q/11. Microtiter plates were centrifuged briefly to pellet beads. [^35S]-GTPγS binding was quantitated by microtiter plate scintillation spectrometry (Wallac). Data analysis was performed by nonlinear regression analysis with GraphPad Prism software running on a personal computer, using 5-HT control concentration-response curves to define maximal stimulation of [^35S]-GTPγS binding.
(In general: Binding of GTPγS marks nucleotide exchange on a G protein.)

5-HT1d receptor, sequence (P28221 whole entry): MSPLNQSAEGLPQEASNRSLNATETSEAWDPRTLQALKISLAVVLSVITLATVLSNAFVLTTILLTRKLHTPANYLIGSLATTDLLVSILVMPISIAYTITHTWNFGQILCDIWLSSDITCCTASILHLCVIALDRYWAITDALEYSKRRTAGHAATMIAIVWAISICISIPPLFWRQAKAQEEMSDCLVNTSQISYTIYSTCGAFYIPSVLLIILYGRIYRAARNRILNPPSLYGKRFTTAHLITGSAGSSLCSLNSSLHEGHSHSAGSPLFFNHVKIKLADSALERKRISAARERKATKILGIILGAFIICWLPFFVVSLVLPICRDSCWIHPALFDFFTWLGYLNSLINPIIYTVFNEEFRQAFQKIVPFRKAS
5-HT1b receptor, sequence (P28222 whole entry): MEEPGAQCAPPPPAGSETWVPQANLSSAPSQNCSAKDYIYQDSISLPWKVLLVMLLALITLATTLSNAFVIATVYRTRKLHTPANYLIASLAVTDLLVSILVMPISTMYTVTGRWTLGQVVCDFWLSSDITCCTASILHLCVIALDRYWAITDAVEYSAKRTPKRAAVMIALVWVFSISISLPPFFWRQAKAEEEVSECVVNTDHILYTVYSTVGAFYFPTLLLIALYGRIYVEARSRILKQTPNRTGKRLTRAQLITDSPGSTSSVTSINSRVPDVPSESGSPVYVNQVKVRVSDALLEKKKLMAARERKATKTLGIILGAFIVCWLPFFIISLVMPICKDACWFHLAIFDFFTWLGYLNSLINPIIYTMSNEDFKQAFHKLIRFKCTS
5-HT1e receptor, sequence (P28566 whole entry): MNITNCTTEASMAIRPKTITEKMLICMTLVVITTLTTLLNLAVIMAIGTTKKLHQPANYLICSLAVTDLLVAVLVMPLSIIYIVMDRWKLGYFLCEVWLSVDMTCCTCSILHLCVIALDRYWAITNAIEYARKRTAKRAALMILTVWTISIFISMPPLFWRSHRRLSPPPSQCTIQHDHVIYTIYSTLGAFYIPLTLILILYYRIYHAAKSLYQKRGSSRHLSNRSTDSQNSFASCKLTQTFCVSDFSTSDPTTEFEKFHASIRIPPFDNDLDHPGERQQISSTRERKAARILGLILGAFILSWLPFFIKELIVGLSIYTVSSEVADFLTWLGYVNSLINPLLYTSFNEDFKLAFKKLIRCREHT

Broadly, the Ki is the equilibrium dissociation constant of an inhibitor or competing ligand from its target. One may read the EC50 as the concentration that produces a half-maximal response. Turning to `C[C@H]1CN(c2ccc(C(F)(F)F)c3ccoc23)CCN1.O=C(O)/C=C/C(=O)O` [Example 1, 1-(4-trifluoromethylbenzofur-7-yl)-3(S)-methylpiperazine fumarate], the Ki on human 5-HT2C receptor [1] worked out at 2.41 nM; at 5-HT1a receptor, 134 nM; at 5-HT1b receptor it was 260 nM; at 5-HT1d receptor it was 147 nM; on 5-HT1e receptor it was 633 nM; at 5-HT1f receptor, 163 nM. The Ki was determined as 37.6 nM on 5-HT2a receptor, 177 nM at 5-HT2b receptor, 977 nM on 5-HT4 receptor and 225 nM on 5-HT6 receptor. In addition, the “affinity for the 5-HT2c receptor (in words)” value on human 5-HT2C receptor [1] is recorded as “found to have affinity”. This compound also showed an EC50 on human 5-HT2C receptor [2] of 8.5 nM. Besides, at human 5-HT2C receptor [2], the “functional activity at the 5-HT2c receptor (in words)” value is recorded as “agonist”.
Turning to `CC[C@H]1CN(c2ccc(C(F)(F)F)c3ccoc23)CCN1.O=C(O)/C=C/C(=O)O` [Example 2, 1-(4-trifluoromethylbenzofur-7-yl)-3(S)-ethylpiperazine fumarate], the inhibition constant (Ki) stood at 0.77 nM at human 5-HT2C receptor [1]; 261 nM on 5-HT1a receptor (5-HT RECEPTOR 1a, read-out: Ki, 5-HT receptor 1a); 2940 nM at 5-HT1b receptor; 726 nM at 5-HT1d receptor; 1140 nM at 5-HT1e receptor; 1000 nM on 5-HT1f receptor. Further, the Ki came to 27.8 nM on 5-HT2a receptor (5-HT RECEPTOR 2a, read-out: Ki, 5-HT receptor 2a); 177 nM on 5-HT2b receptor (5-HT RECEPTOR 2b, read-out: Ki, 5-HT receptor 2b); 607 nM on 5-HT6 receptor (5-HT RECEPTOR 6, read-out: Ki, 5-HT receptor 6). On human 5-HT2C receptor [1], the “affinity for the 5-HT2c receptor (in words)” value is “found to have affinity”. In addition, the “functional activity at the 5-HT2c receptor (in words)” value on human 5-HT2C receptor [2] is listed as “agonist”. For the same compound, the EC50 at human 5-HT2C receptor [2] (agonist of 5-HT2c receptor, membranes of AV12 cells with human 5-HT2C, 5-HT defines maximal stimulation, read-out: EC50, [35S]-GTPγS assay) amounted to 7.8 nM.
